Measurements reported in patent US9611502B2, “Method for simultaneously measuring activity of various enzymes by using multi-wavelength absorption single channel” (Chongqing Medical University, priority 2012, dated 2017).

How the values were obtained:
[1] = molecular target: T1, lactic acid dehydrogenase (LDH) (Oryctolagus cuniculus, UniProt P13491); assay: LDH kinetics and competitive inhibition by 4-nitroaniline (simultaneous GGT/LDH assay); type: biochemical, rabbit
T1 construct: purchased Shanghai Shangon NB0642

[2] = molecular target: T2, calf intestinal alkaline phosphatase (CIAP) (Bos taurus, UniProt P19111)
T2 sequence (P19111 20-506): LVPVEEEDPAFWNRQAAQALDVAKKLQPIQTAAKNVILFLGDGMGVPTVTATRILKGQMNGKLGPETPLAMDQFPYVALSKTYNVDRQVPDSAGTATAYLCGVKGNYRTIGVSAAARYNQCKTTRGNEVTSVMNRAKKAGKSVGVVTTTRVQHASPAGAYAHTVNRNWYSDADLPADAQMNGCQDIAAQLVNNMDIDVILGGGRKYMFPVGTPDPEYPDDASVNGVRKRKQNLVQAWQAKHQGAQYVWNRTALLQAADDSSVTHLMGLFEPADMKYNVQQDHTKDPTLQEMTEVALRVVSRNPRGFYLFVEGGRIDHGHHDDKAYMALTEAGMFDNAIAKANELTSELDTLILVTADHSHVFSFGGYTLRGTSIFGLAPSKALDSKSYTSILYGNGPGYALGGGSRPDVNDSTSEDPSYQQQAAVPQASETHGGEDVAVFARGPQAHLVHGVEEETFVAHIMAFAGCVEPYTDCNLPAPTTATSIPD

[3] = tested on: γ-glutamyltransferase (GGT); settings: preset for data processing; cited from earlier work
[4] = Specific activity of penicillin G-labeled β-D-galactosidase after labeling; type: biochemical; settings: 50 mmol/L Tris-HCl pH 7.5
Method: b) mixing 50 ul solution of the activated penicillin G with 0.50 ml of 0.44 mg β-D-galactosidase dissolved in the sodium phosphate buffer at pH 7.4, keeping the mixture at 4° C. for reaction for 120 min; the resulting mixture of the labeled β-D-galactosidase is passed through Sephadex G25 column (15 cm height and 10 mm inner diameter with a packed volume of 10 ml, equilibrated with 50 mmol/L Tris-HCl at pH 7.5) and the column is eluted with the same Tris-HCl buffer to monitor the absorbance at 280 nm; the first peak of the elution is the labeled β-D-galactosidase, with a total of 0.22 mg protein in 2.0 ml elution solution;
c) determining the specific activity after labeling: in 50 mmol/L Tris-HCl at pH 7.5, the specific activity of the labeled β-D-galactosidase is about 30 μmol·(L·min·mg)^−1 on 4-nitrophenyl-β-D-galactoside, indicating the reservation of nearly 100% activity; meanwhile, the specific activity on 4-nitro-1-napthyl-β-D-galactoside in the same buffer, its specific activity is about 100 (L·min·mg)^−1, but just about 70% of that before modification;

[5] = molecular target: T2, calf intestinal alkaline phosphatase (CIAP); parameters: purchased Sigma P0114; settings: Blake et al 1982 method; cited from earlier work

Nc1ccc([N+](=O)[O-])cc1 [4-nitroaniline]
Ki [1]: 24 µM

O=[N+]([O-])c1ccc(OP(=O)(O)O)c2ccccc12 [4NNPP, 4-nitronaphthylphosphate]
specific activity of CIAP relative to that on 4-nitrophenylphosphate [2]: about 40%
Michaelis constant of CIAP ([2]; 4NNPP as chromogenic substrate): about 10 μmol/L

NC(=O)C1=CN([C@@H]2O[C@H](COP(=O)(O)OP(=O)(O)OC[C@H]3O[C@@H](n4cnc5c(N)ncnc54)[C@H](O)[C@@H]3O)[C@@H](O)[C@H]2O)C=CC1 [NADH, reduced form of nicotine adenine nucleotide]
Michaelis constant of LDH for NADH ([1]; pyruvate 3.0 mmol/L, pH 7.0): 0.040 mmol/L

N[C@@H](CCC(=O)Nc1ccc([N+](=O)[O-])cc1)C(=O)O [γ-glutamyl-(4-nitro)-aniline]
Michaelis constant of GGT for substrate (preset) [3]: 1.00 mmol/L

labeled β-D-galactosidase: β-D-galactosidase (Sigma G4155) modified with activated penicillin G
reservation of activity after labeling (4-nitrophenyl-β-D-galactoside) [4]: about 100%
specific activity on 4-nitro-1-napthyl-β-D-galactoside [4]: about 100 (L·min·mg)^−1
specific activity on 4-nitro-1-napthyl-β-D-galactoside relative to that before modification [4]: about 70%
specific activity on 4-nitrophenyl-β-D-galactoside [4]: about 30 μmol·(L·min·mg)^−1

phenolphthalein monophosphate
specific activity of CIAP relative to that on p-nitrophenylphosphate [5]: about 7%
